# Measured values: ChEMBL document CHEMBL1146891, “Preparation of 1-(3-aminobenzo[d]isoxazol-5-yl)-1H-pyrazolo[4,3-d]pyrimidin-7(6H)-ones as potent, selective, and efficacious inhibitors of coagulation factor Xa” (Bioorg Med Chem Lett, 2006)
# Where a name gives a salt, the structure may show the parent alone.
# Assays:
# [1] = biological target: T1, Coagulation factor X (Homo sapiens, UniProt P00742); assay: Binding affinity to human f10a
# [2] = biological target: T1, Coagulation factor X; assay: Anticoagulant activity in human plasma measured as activated partial thromboplastin time; format: functional, cell-free
# [3] = biological target: T2, Coagulation factor VII/tissue factor (Homo sapiens) (UniProt P08709+P13726); assay: Anticoagulant activity in human plasma measured as prothrombin time; format: functional, cell-free
# [4] = Protein binding in rabbit plasma; format: ADME, organism-based, Oryctolagus cuniculus; details: read-out: PPB (converted)
# [5] = biological target: T2, Coagulation factor VII/tissue factor (Homo sapiens); assay: Anticoagulant activity in rabbit plasma measured as prothrombin time; format: functional, cell-free; details: Oryctolagus cuniculus, target entry is the homologue from another species
# [6] = Volume of distribution in dog at 0.5 mg/kg, iv and 0.2 mg/kg, po; format: ADME, organism-based, Canis lupus familiaris; details: in vivo, read-out: Vdss
# [7] = Half life in dog at 0.5 mg/kg, iv and 0.2 mg/kg, po; format: ADME, organism-based, Canis lupus familiaris; details: in vivo
# [8] = Bioavailability in dog at 0.5 mg/kg, iv and 0.2 mg/kg, po; format: ADME, organism-based, Canis lupus familiaris; details: in vivo
# [9] = Clearance in dog at 0.5 mg/kg, iv and 0.2 mg/kg, po; format: ADME, organism-based, Canis lupus familiaris; details: in vivo
# [10] = Apparent permeability in Caco-2 cells; format: ADME, cell-based; details: human
# [11] = Stability at pH 1.0; format: physicochemical; details: buffer
# [12] = Stability at pH 4.0; format: physicochemical; details: buffer
# [13] = biological target: Plasminogen (Homo sapiens, UniProt P00747); assay: Binding affinity to human plasmin
# [14] = biological target: Chymotrypsinogen B (Homo sapiens, UniProt P17538); assay: Binding affinity to human chymotrypsin
# [15] = biological target: Coagulation factor IX (Homo sapiens, UniProt P00740); assay: Binding affinity to human f9a
# [16] = biological target: Tissue-type plasminogen activator (Homo sapiens, UniProt P00750); assay: Binding affinity to human tPA
# [17] = biological target: Prothrombin (Homo sapiens, UniProt P00734); assay: Binding affinity to human thrombin
# [18] = biological target: Urokinase-type plasminogen activator (Homo sapiens, UniProt P00749); assay: Binding affinity to human urokinase
# [19] = biological target: T3, Coagulation factor X (Oryctolagus cuniculus, UniProt O19045); assay: Binding affinity to rabbit f10a
# T3 sequence (O19045 whole entry): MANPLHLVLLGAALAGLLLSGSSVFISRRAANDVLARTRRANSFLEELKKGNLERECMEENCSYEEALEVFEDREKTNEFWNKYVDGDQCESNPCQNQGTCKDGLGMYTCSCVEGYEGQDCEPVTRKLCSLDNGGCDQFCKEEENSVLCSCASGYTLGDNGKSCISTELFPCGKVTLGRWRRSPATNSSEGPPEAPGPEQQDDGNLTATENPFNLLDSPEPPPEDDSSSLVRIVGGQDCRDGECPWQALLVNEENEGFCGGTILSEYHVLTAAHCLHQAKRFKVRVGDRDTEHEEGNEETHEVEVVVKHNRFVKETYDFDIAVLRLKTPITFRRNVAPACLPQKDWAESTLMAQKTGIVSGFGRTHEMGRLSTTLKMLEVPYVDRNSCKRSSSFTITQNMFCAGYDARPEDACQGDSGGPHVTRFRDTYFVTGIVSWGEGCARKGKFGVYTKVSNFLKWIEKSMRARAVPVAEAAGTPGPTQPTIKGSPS
# [20] = biological target: Trypsin (Homo sapiens, UniProt P07477+P07478+P35030); assay: Binding affinity to human trypsin; format: protein assay
# [21] = tested on: Oryctolagus cuniculus; assay: Inhibition of thrombus formation in iv dosed rabbit arterio-venous shunt model; format: functional, organism-based
# [22] = biological target: Vitamin K-dependent protein C (Homo sapiens, UniProt P04070); assay: Binding affinity to human activated protein C
# [23] = organism: Homo sapiens; assay: Selectivity for f10a over activated protein C
# [24] = organism: Homo sapiens; assay: Selectivity for f10a over chymotrypsin
# [25] = biological target: Coagulation factor X and plasma kallikrein (Homo sapiens) (UniProt P03952+P00742); assay: Selectivity for f10a over plasma kallikrein; format: cell-free
# [26] = organism: Homo sapiens; assay: Selectivity for f10a over plasmin
# [27] = biological target: Coagulation factor VII and X (Homo sapiens) (UniProt P00742+P08709); assay: Selectivity for f10a over f7a; format: protein assay
# [28] = organism: Homo sapiens; assay: Selectivity for f10a over urokinase
# [29] = organism: Homo sapiens; assay: Selectivity for f10a over trypsin
# [30] = organism: Homo sapiens; assay: Selectivity for f10a over tPA
# [31] = biological target: Thrombin and coagulation factor X (Homo sapiens) (UniProt P00734+P00742); assay: Selectivity for f10a over thrombin; format: protein assay
# Sequence of Thrombin and coagulation factor X (Homo sapiens) (P00742 whole entry, looked up, other chains not shown): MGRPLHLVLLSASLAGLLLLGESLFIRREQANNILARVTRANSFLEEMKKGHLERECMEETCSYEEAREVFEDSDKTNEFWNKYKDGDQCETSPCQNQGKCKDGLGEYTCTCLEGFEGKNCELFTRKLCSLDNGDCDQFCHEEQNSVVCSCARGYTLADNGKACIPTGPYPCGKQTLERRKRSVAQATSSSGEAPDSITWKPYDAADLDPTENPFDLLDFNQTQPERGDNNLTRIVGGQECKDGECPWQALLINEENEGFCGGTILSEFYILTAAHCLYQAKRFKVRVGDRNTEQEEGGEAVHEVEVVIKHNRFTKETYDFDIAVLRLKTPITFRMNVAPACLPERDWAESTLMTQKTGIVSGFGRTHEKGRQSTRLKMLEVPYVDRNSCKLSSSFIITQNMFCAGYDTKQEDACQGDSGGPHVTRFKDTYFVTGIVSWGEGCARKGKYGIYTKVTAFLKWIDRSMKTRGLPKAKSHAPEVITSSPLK
# T1 sequence (P00742 41-179 limits assumed): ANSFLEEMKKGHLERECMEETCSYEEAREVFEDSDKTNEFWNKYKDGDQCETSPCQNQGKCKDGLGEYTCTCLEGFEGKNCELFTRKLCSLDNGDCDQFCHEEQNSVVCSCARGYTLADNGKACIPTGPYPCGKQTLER
# T1 sequence (P00742 235-488 limits assumed): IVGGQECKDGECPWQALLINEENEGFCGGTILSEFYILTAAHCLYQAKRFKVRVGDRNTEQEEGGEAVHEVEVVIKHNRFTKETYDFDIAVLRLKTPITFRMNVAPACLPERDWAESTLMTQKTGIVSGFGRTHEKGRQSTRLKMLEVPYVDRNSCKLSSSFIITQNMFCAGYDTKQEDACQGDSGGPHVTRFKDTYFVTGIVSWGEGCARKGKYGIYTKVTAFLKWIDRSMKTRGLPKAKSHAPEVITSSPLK
# Sequence of Vitamin K-dependent protein C (P04070 43-197 limits assumed): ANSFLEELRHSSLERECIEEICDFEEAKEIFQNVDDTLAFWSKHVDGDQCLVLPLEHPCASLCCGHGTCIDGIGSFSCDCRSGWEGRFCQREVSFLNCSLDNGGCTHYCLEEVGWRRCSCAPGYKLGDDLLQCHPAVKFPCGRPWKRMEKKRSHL
# Sequence of Vitamin K-dependent protein C (P04070 212-461 limits assumed): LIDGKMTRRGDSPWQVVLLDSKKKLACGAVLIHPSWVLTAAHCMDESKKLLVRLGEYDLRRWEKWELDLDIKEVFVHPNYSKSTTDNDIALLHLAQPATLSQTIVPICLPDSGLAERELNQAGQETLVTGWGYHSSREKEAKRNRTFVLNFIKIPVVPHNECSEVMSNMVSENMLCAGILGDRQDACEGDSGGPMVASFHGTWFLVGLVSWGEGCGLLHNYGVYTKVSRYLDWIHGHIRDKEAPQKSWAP
# Sequence of Chymotrypsinogen B (P17538 34-164 limits assumed, other chains not shown): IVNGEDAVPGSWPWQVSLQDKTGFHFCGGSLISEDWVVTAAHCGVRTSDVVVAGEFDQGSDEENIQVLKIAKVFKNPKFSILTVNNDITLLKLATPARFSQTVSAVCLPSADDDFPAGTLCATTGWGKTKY
# Sequence of Chymotrypsinogen B (P17538 167-263 limits assumed, other chains not shown): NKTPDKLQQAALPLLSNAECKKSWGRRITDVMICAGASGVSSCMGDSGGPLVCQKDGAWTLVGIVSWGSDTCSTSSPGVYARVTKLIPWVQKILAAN
# Sequence of Coagulation factor IX (P00740 47-191 limits assumed): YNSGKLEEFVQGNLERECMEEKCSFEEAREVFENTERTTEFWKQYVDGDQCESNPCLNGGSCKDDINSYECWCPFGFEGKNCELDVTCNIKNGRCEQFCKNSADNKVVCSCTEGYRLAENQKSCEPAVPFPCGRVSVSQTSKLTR
# Sequence of Coagulation factor IX (P00740 227-461 limits assumed): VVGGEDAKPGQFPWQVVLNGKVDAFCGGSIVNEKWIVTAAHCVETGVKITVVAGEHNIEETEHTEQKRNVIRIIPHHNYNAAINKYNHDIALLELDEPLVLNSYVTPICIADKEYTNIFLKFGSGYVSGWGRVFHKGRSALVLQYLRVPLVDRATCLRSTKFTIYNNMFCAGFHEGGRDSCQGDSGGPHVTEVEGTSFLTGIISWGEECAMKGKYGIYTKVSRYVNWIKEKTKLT
# Sequence of Plasminogen (P00747 97-580 limits assumed): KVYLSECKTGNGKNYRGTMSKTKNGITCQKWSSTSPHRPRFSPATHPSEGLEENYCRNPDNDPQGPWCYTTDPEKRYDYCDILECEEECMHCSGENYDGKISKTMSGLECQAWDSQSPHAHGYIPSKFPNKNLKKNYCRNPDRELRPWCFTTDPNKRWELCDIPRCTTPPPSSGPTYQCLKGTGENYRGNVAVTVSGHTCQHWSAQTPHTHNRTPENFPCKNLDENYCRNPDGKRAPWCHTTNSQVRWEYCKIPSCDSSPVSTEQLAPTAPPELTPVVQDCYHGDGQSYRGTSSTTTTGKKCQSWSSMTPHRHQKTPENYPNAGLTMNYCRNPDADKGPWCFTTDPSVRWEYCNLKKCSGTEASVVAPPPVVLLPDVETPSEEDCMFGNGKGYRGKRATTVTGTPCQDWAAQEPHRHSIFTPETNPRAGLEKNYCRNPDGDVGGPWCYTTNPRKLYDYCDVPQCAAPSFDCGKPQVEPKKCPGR
# Sequence of Plasminogen (P00747 581-810 limits assumed): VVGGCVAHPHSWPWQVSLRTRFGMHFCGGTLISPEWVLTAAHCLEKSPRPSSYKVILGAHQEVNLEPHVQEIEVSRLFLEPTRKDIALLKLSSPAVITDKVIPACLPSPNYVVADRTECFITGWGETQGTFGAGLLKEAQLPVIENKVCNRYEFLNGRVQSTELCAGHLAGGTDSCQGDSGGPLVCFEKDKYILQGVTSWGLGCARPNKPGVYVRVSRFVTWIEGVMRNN
# Sequence of Coagulation factor X and plasma kallikrein (Homo sapiens) (P00742 whole entry, looked up): as the sequence (P00742 whole entry, looked up, other chains not shown) above
# Sequence of Coagulation factor X and plasma kallikrein (Homo sapiens) (P03952 whole entry, looked up): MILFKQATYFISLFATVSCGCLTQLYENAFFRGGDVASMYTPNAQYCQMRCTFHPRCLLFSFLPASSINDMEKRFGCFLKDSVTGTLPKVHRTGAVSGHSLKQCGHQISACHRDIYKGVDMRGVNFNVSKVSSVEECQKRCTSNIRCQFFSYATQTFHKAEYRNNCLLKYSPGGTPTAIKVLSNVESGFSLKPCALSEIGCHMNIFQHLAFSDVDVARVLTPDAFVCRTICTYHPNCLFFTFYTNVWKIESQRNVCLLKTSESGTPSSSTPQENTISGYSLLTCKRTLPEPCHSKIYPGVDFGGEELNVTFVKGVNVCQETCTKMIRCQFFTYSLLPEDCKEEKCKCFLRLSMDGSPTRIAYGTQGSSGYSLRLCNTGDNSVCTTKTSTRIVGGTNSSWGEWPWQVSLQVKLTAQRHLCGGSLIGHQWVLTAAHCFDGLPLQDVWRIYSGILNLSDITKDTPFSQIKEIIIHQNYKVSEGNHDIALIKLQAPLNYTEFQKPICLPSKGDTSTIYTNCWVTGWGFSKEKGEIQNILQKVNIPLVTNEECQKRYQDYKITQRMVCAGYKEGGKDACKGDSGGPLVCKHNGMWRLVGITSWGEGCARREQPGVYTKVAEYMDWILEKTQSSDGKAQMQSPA
# Sequence of Tissue-type plasminogen activator (P00750 whole entry): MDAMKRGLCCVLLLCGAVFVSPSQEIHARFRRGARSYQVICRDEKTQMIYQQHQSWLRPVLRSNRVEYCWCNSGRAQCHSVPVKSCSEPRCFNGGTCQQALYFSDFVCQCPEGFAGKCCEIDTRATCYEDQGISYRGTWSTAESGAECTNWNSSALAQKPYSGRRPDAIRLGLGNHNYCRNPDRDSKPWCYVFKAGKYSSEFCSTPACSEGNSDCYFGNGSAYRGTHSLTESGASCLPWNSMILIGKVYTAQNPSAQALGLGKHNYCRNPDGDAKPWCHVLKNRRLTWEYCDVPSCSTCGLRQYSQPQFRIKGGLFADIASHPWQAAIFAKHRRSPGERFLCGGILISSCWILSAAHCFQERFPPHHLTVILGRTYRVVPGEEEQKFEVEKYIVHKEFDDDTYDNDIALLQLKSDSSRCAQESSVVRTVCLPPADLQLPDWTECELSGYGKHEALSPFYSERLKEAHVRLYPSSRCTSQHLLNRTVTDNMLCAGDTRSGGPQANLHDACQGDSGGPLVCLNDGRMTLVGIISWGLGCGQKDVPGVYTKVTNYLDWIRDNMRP
smiles,measurement,setting,value
Nc1noc2ccc(-n3nc(C(F)(F)F)c4[nH]c(=O)n(-c5ccc(-c6ccccc6CN6CCC(O)CC6)cc5)c(=O)c43)cc12,Ki,[1],0.22 nM
same,2aPTT,[2],352 µM
same,2PT,[3],92.6 µM
CN(C)Cc1nccn1-c1ccc(NC(=O)c2cc(C(F)(F)F)nn2-c2ccc3onc(N)c3c2)c(F)c1 [RAZAXABAN HYDROCHLORIDE],fraction unbound,[4],0.07
Cc1nc2c(C(F)(F)F)nn(-c3ccc4onc(N)c4c3)c2c(=O)n1-c1ccc(-c2ccccc2CN2CC[C@@H](O)C2)cc1 [listing 1 of 2 here],2aPTT,[2],28 µM
same,2PT,[3],6.6 µM
Cc1nc2c(C(F)(F)F)nn(-c3ccc4onc(N)c4c3)c2c(=O)n1-c1ccc(-c2ccccc2CN(C)C)cc1 [listing 1 of 2 here],2PT,[5],2.7 µM
same,2aPTT,[2],9.2 µM
same,2PT,[3],4.1 µM
Cc1nc2c(C(F)(F)F)nn(-c3ccc4onc(N)c4c3)c2c(=O)n1-c1ccc(-c2ccccc2CN(C)C)cc1.O=C(O)C(F)(F)F,Vd,[6],13 L/kg
same,half-life,[7],840 min
same,bioavailability,[8],63%
same,clearance,[9],11.7 mL/min/kg
same,Papp,[10],19 ×10⁻⁶ cm/s
CN(C)Cc1ccccc1-c1ccc(-n2cnc3c(C(F)(F)F)nn(-c4ccc5onc(N)c5c4)c3c2=O)cc1,Stability,[11],83.2%
same,Ki,[1],0.35 nM
same,2aPTT,[2],3.7 µM
same,Stability,[12],72.3%
same,2PT,[3],2.6 µM
CN(C)Cc1ccccc1-c1ccc(-c2nnc3c(C(F)(F)F)nn(-c4ccc5onc(N)c5c4)c3c2O)cc1,Ki,[1],5.5 nM
Cc1nc2c(C(F)(F)F)nn(-c3ccc4onc(N)c4c3)c2c(=O)n1-c1ccc(-c2ccccc2CN(C)C)cc1 [listing 2 of 2 here],Ki,[13],> 25 µM
same,Ki,[14],> 11 µM
same,Ki,[15],37 µM
same,Ki,[16],> 40 µM
same,Ki,[17],130 nM
same,Ki,[18],> 40 µM
same,Ki,[19],0.2 nM
same,Ki,[20],> 4.2 µM
same,fraction unbound,[4],0.03
same,ID50,[21],1.9 µmol/kg/h
same,IC50,[21]; Oryctolagus cuniculus,290 nM
same,Ki,[22],> 37 µM
CCOC(=O)c1nn(-c2ccc3onc(N)c3c2)c2c(=O)n(-c3ccc(-c4ccccc4CN4CCCC4)cc3)cnc12,Ki,[1],1.6 nM
same,2aPTT,[2],1.6 µM
same,2PT,[3],2.3 µM
Cc1nc2c(C(F)(F)F)nn(-c3ccc4onc(N)c4c3)c2c(=O)n1-c1ccc(-c2ccccc2CN2CC[C@@H](O)C2)cc1 [listing 2 of 2 here],Ki,[1],0.18 nM
Cc1nn(-c2ccc3onc(N)c3c2)c2c(=O)n(-c3ccc(-c4ccccc4CN(C)C)cc3)cnc12 [listing 1 of 2 here],Stability,[11],97.2%
same,Ki,[1],0.53 nM
same,Stability,[12],90.1%
Nc1noc2ccc(-n3nc(C(F)(F)F)c4c3C(=O)N(c3ccc(-c5ccccc5CN5CC[C@@H](O)C5)cc3)CN4)cc12,Ratio Ki,[23],> 1000
same,Ratio Ki,[24],> 1000
same,Ratio Ki,[25],> 1000
same,Ratio Ki,[26],> 1000
same,Ratio Ki,[27],> 1000
same,Ratio Ki,[28],> 1000
same,2aPTT,[2],2.9 µM
same,Ratio Ki,[29],> 1000
same,Ratio Ki,[30],> 1000
same,2PT,[3],1.6 µM
same,Ratio Ki,[31],> 500
Nc1noc2ccc(-n3nc(C(F)(F)F)c4c3C(=O)N(c3ccc(-c5ccccc5CN5CC[C@@H](O)C5)cc3)CN4)cc12.O=C(O)C(F)(F)F,Vd,[6],4.2 L/kg
same,half-life,[7],258 min
same,bioavailability,[8],27%
same,clearance,[9],16.3 mL/min/kg
same,Papp,[10],3.9 ×10⁻⁶ cm/s
CN(C)Cc1ccccc1-c1ccc(-c2cnc3c(C(F)(F)F)nn(-c4ccc5onc(N)c5c4)c3c2O)cc1,Ki,[1],3.2 nM
Cc1nn(-c2ccc3onc(N)c3c2)c2c(=O)n(-c3ccc(-c4ccccc4CNCC4CC4)cc3)cnc12,Ki,[1],1.7 nM
same,2aPTT,[2],8.1 µM
same,2PT,[3],3.1 µM
Cc1nn(-c2ccc3onc(N)c3c2)c2c(=O)n(-c3ccc(-c4ccccc4CN4CC[C@H](O)C4)cc3)cnc12,Ki,[1],0.5 nM
same,2aPTT,[2],4.3 µM
same,2PT,[3],2.1 µM
Cc1nn(-c2ccc3onc(N)c3c2)c2c(=O)n(-c3ccc(-c4ccccc4CN(C)C)cc3)cnc12 [listing 2 of 2 here],2aPTT,[2],2.1 µM
same,2PT,[3],1.3 µM
